The values below are quoted from earlier work in patent US6468258B1, “Plastic compositions including vitamin E for medical containers and methods for providing such compositions and containers” (Baxter International Inc., priority 1997, dated 2002).

The data set deals with red blood cells. To be noted: Vitamin E added directly to red blood cells; as reported in U.S. Pat. No. 5,037,419.

On to Vitamin E, for which the hemolysis entry is reported as “lower hemolysis”.
